Tests used:
Experiment in all cases: relative viability (nuclei count vs DMSO), 5 days (fraction); higher = more cells survive
Palbociclib + OSI-027 = compound: CC(=O)c1c(C)c2cnc(Nc3ccc(N4CCNCC4)cn3)nc2n(C2CCCC2)c1=O [Palbociclib] + COc1cccc2cc(-c3nc([C@H]4CC[C@H](C(=O)O)CC4)n4ncnc(N)c34)[nH]c12 [OSI-027] (partner 0.5 µM)
Summary of the method: (§1)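 One day after seeding in 1536-well plates, lung cancer cell lines were dosed by pin tool. Dosing was either single-drug or a fixed anchor-drug dose plus five library-drug doses (not always all listed) in √10 steps. After 5 days, nuclei were stained in one fix-and-stain step and counted on 4× images, and relative viability is the nuclei count of treated wells over that of vehicle wells, given as the median of duplicate plates.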

Palbociclib + Luminespib = compound: CC(=O)c1c(C)c2cnc(Nc3ccc(N4CCNCC4)cn3)nc2n(C2CCCC2)c1=O [Palbociclib] + CCNC(=O)c1noc(-c2cc(C(C)C)c(O)cc2O)c1-c1ccc(CN2CCOCC2)cc1 [Luminespib] (partner 0.01 µM)
Summary of the method: as §1

Palbociclib + Trametinib = compound: CC(=O)c1c(C)c2cnc(Nc3ccc(N4CCNCC4)cn3)nc2n(C2CCCC2)c1=O [Palbociclib] + CC(=O)Nc1cccc(-n2c(=O)n(C3CC3)c(=O)c3c(Nc4ccc(I)cc4F)n(C)c(=O)c(C)c32)c1 [Trametinib] (partner 0.02 µM)
Summary of the method: as §1

Row | Cell Line | relative viability (Palbociclib + OSI-027; first compound 0.01 µM) | relative viability (Palbociclib + OSI-027; first compound 0.03162 µM) | relative viability (Palbociclib + OSI-027; first compound 0.1 µM) | relative viability (Palbociclib + OSI-027; first compound 0.3162 µM) | relative viability (Palbociclib + OSI-027; first compound 1 µM) | relative viability (Palbociclib + Luminespib; first compound 0.01 µM) | relative viability (Palbociclib + Luminespib; first compound 0.03162 µM) | relative viability (Palbociclib + Luminespib; first compound 0.1 µM) | relative viability (Palbociclib + Luminespib; first compound 0.3162 µM) | relative viability (Palbociclib + Luminespib; first compound 1 µM) | relative viability (Palbociclib + Trametinib; first compound 0.01 µM) | relative viability (Palbociclib + Trametinib; first compound 0.03162 µM) | relative viability (Palbociclib + Trametinib; first compound 0.1 µM) | relative viability (Palbociclib + Trametinib; first compound 0.3162 µM) | relative viability (Palbociclib + Trametinib; first compound 1 µM)
1 | NCI-H1563 | 0.75 | 0.776 | 0.74 | 0.735 | 0.534 | 0.479 | 0.444 | 0.432 | 0.577 | 0.489 | – | – | – | – | –
2 | NCI-H1650 | 0.701 | 0.404 | 0.522 | 0.481 | 0.403 | 0.178 | 0.211 | 0.186 | 0.186 | 0.172 | 0.623 | 0.575 | 0.39 | 0.58 | 0.411
3 | NCI-H2009 | 0.64 | 0.481 | 0.331 | 0.297 | 0.194 | 1.04 | 0.897 | 0.817 | 0.701 | 0.519 | 0.307 | 0.296 | 0.194 | 0.223 | 0.141
4 | NCI-H2023 | 0.358 | 0.335 | 0.298 | 0.265 | 0.154 | 0.723 | 0.532 | 0.515 | 0.551 | 0.343 | 0.655 | 0.408 | 0.477 | 0.464 | 0.326
5 | NCI-H2228 | 0.529 | 0.373 | 0.389 | 0.492 | 0.48 | 0.173 | 0.182 | 0.149 | 0.126 | 0.098 | 0.606 | 0.373 | 0.494 | 0.522 | 0.483

Reference: the supplement of paper PMC10307832
